Reference: PubChem BioAssay AID179 (DTP/NCI, 2004)
Active and inactive are the calls of the source.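 How the source made its calls: active means compounds giving half or more protection of infected cells from virus-caused growth loss, again on retest; inactive means the rest.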

Tested on: CEM cells HIV-1 protection, formazan growth assay
Assay: NCI AIDS Antiviral Assay
Details: for IC50: measured here: growth of uninfected CEM cells
Procedure, shortened: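 Protection of CEM cells against HIV-1 measured as cell growth via soluble formazan read-out, with five concentrations tested on both infected and uninfected cells; failure to protect may reflect toxicity.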

SMILES: CC(=O)OCC(OC(C)=O)C(OC(C)=O)C(OC(C)=O)C(/C=N\Nc1nc2ccccc2c(=O)[nH]1)OC(C)=O (stereo not drawn)
- EC50: > 200 µM
- IC50: > 200 µM

SMILES: Cn1c(COc2ccc(/C=N/Nc3ccnc(N/N=C/c4ccc(OCc5c[n+]6ccccc6n5C)cc4)n3)cc2)c[n+]2ccccc12
- EC50: 3.02 µM
- IC50: 3.24 µM

SMILES: CCCNC(=O)Nc1c([N+](=O)[O-])cc(C(F)(F)F)cc1[N+](=O)[O-]
- outcome: inactive

SMILES: Cc1ccc(SSc2ccc(C)cc2)cc1
- EC50: > 20 µM
- outcome: inactive
- IC50: 3.55 µM

SMILES: CN(CCSSCCN(C)/N=C/c1ccccc1)/N=C/c1ccccc1
- EC50: > 200 µM
- IC50: > 200 µM

SMILES: CC(=O)N1CCOC12N=NC(C)(C)O2 (stereo not drawn)
- EC50: > 200 µM
- IC50: > 200 µM

SMILES: O=S(=O)(O)CCS(=O)(=O)O
- EC50: > 200 µM
- IC50: > 200 µM

SMILES: N#Cc1ccc(C(=O)/C=C/c2ccc(O)c(O)c2)cc1
- EC50: > 200 µM
- IC50: 10.2 µM

SMILES: N#CC1(C#N)[C@@H]2CCC=C(Sc3ccccc3)[C@@H]21
- EC50: > 200 µM
- IC50: 9.12 µM

SMILES: c1ccc2cc3c(NC4=NCCO4)cccc3cc2c1
- EC50: > 200 µM
- IC50: 64.6 µM

SMILES: O=S(=O)(O)CC(O)CN(CCO)CCO (stereo not drawn)
- EC50: > 200 µM
- IC50: > 200 µM

SMILES: COc1ccc(Sc2ccccc2N)cc1
- outcome: inactive

SMILES: C/C=C(/CCC1NCCc2c1[nH]c1ccccc21)[Si](C)(C)C (stereo not drawn)
- outcome: inactive

SMILES: CC(=[OH+])[CH-]C(C)=NCC(C)N=C(C)CC(C)=[OH+].[Cu+2] (stereo not drawn)
- EC50: > 200 µM
- IC50: 20.9 µM

SMILES: Cn1cnc2c(C#N)c(C#N)nn2c1=O
- EC50: > 200 µM
- IC50: > 200 µM

SMILES: Nc1ccccc1C(=O)NNC(=O)c1ccccc1O
- EC50: > 200 µM
- IC50: 16.6 µM

SMILES: O=C1CSC2=NCCN12
- EC50: > 200 µM
- outcome: inactive
- IC50: > 200 µM

SMILES: CC(C)NCCCNc1c2ccccc2nc2cccc([N+](=O)[O-])c12
- EC50: > 0.2 µM
- IC50: 0.0316 µM

SMILES: Cc1ccc(C(=O)NC(C)(C)C)cc1N=NN(C)C
- EC50: > 138 µM
- IC50: > 138 µM

SMILES: CC(=O)N1c2ccccc2[C@H]2CCc3c([nH]c4ccccc34)[C@H]21
- EC50: > 20 µM
- IC50: 12.9 µM

SMILES: COC1(CC2(OC)C=CC(=O)O2)C=CC(=O)O1 (stereo not drawn)
- EC50: > 105 µM
- IC50: 55 µM

SMILES: CSc1nc(NC2OCC(O)C(O)C2O)c(N)c(=O)[nH]1 (stereo not drawn)
- outcome: inactive

SMILES: CCOC(=O)C(C)(CCC(C)(C(=O)OCC)C(=O)OCC)C(=O)OCC
- EC50: > 200 µM
- IC50: 75.9 µM

SMILES: COC1=NC2=CC(=O)c3c(c(OC(C)=O)c(C)c4c3C(=O)C(C)(O/C=C/C(OC)C(C)C(OC(C)=O)C(C)C(O)C(C)C(OC(C)=O)C(C)/C=C/C=C\1C)O4)C2=O (stereo not drawn)
- EC50: > 200 µM
- IC50: 16.6 µM

SMILES: O=[N+]([O-])c1c(Cl)cccc1-c1c[nH]cc1Cl
- EC50: > 263 µM
- IC50: 61.7 µM

SMILES: C[N+](C)(CCNC(=O)c1cccc2cc3ccccc3nc12)Cc1ccc([N+](=O)[O-])cc1
- EC50: > 200 µM
- IC50: 97.7 µM

SMILES: N#CC(C(=N/NC(N)=S)/C(=N/NC(N)=S)C(C#N)c1ccc(Cl)cc1)c1ccc(Cl)cc1 (stereo not drawn)
- EC50: > 257 µM
- IC50: 186 µM

SMILES: CSCCC(NCc1c(O)ccc2ccc(=O)oc12)C(=O)O (stereo not drawn)
- EC50: > 200 µM
- IC50: > 200 µM

SMILES: Cc1ccccc1NC(=O)CSc1nnc(Cc2ccccc2)o1
- EC50: > 263 µM
- IC50: 234 µM

SMILES: Cc1ccccc1N1C(=O)C2C=CC(n3[nH]c(=O)n(Cc4ccccc4)c3=O)CC2C1=O (stereo not drawn)
- EC50: > 219 µM
- IC50: > 219 µM

SMILES: Cc1c2ccccc2nc(CSc2ccc(Cl)cc2)[n+]1[O-]
- EC50: 45.7 µM
- IC50: 105 µM

SMILES: Cc1cn(C2C(CO)C(CO)C2(F)F)c(=O)[nH]c1=O (stereo not drawn)
- EC50: > 200 µM
- IC50: > 200 µM

SMILES: CCc1c(Cc2cc(C)cc(C)c2)n(COCCCCOC(=O)c2ccccc2)c(=O)[nH]c1=O
- EC50: 0.00692 µM
- IC50: 2 µM

SMILES: CC1(C)CC(=O)C2=C(C1)OC1(CC2c2ccc(Cl)cc2)CC(c2ccc(Cl)cc2)C2=C(CC(C)(C)CC2=O)O1 (stereo not drawn)
- EC50: > 100 µM
- IC50: 15.1 µM

SMILES: CC1(C)Oc2ccc3ccc(=O)oc3c2C(O)C1O (stereo not drawn)
- EC50: > 200 µM
- IC50: 115 µM

SMILES: COc1ccc(C2c3cc(O)c(OC)cc3Oc3cc(OC)c(O)cc32)cc1
- EC50: > 200 µM
- IC50: 8.51 µM

SMILES: COc1cc(/C=C/c2nc(NC(=S)Nc3ccccc3)nnc2C)cc(OC)c1OC
- EC50: > 200 µM
- IC50: 13.8 µM

SMILES: COC(=O)C(Cc1c[nH]c2ccccc12)NP(=O)(O)OCC1OC(n2ccc(N)nc2=O)C(O)C1O (stereo not drawn)
- EC50: > 200 µM
- IC50: 5.25 µM

SMILES: O=C1C=C2C3c4c(cc(O)cc4C4c5c(O)cc6c(c5[C@@H]5C(c7ccc(O)cc7)C1C(=O)[C@@]25[C@@H]4c1ccc(O)cc1)[C@@H](c1cc(O)cc(O)c1)[C@H](c1ccc(O)cc1)O6)O[C@H]3c1ccc(O)cc1 (stereo partly drawn)
- EC50: > 15.8 µM
- IC50: 10.7 µM

SMILES: COc1c(OC(C)=O)cc2c(OC(C)=O)c1CC(C)CC(OC)C(O)C(C)/C=C(\C)C(OC(N)=O)C(OC)/C=C\C=C(/C)C(=O)N2 (stereo not drawn)
- EC50: > 195 µM
- IC50: 3.02 µM

SMILES: Cc1cccc(C)c1N=O
- outcome: inactive

SMILES: CC(=O)[CH-]C(=O)c1ccccc1.CC(=O)[CH-]C(=O)c1ccccc1.[CH2-]CCC.[CH2-]CCC.[Sn+4]
- EC50: > 46.8 µM
- IC50: 0.776 µM

SMILES: C[N+]1([O-])[C@H]2CC(OC(=O)[C@H](CO)c3ccccc3)C[C@H]1[C@H]1O[C@H]12 (stereo partly drawn)
- EC50: > 200 µM
- IC50: > 200 µM

SMILES: C=CC[C@@]1(OC(C)=O)C(=O)C(=O)OC1C1COC(C)(C)O1 (stereo partly drawn)
- EC50: > 200 µM
- IC50: 11.2 µM

SMILES: CN(CC(O)C(O)CN(C)C(=S)S)C(=S)S (stereo not drawn)
- EC50: > 661 µM
- IC50: 170 µM

SMILES: c1ncn(C23C4C5C6C4C2C6C53)n1 (stereo not drawn)
- EC50: > 200 µM
- IC50: > 200 µM

SMILES: O=C1NC(c2ccco2)N2C(=O)NC(c3ccco3)N12 (stereo not drawn)
- outcome: inactive

SMILES: CCOC(=O)C1S(=O)(=O)OCCOS1(=O)=O
- EC50: > 5750 µM
- IC50: 3470 µM

SMILES: Cc1ccc(S(=O)(=O)Nc2ccccc2SSc2ccccc2NS(=O)(=O)c2ccc(C)cc2)cc1
- EC50: > 200 µM
- IC50: 4.57 µM

SMILES: CSC1=Nc2cc3c(cc2C(=O)N2CC(OC(C)=O)CC12)OCO3 (stereo not drawn)
- EC50: > 200 µM
- IC50: > 200 µM

SMILES: Cc1cn(C2CC3C(COC(CC[Se]c4ccccc4)N3O)O2)c(=O)[nH]c1=O (stereo not drawn)
- EC50: 24 µM
- IC50: 158 µM

SMILES: COC(=O)[C@@H]1C[C@H]([Se]c2ccccc2)CN1S(=O)(=O)c1ccc(C)cc1
- outcome: inactive

SMILES: CCOC(=O)c1c(N2CCOCC2)[nH]c(=O)c(C(c2c(O)c(C(=O)OCC)c(N3CCOCC3)[nH]c2=O)C(C)C)c1O
- EC50: > 200 µM
- IC50: > 200 µM

SMILES: Nc1nc(N)c(N=O)c(Nc2ccc(Br)c(Br)c2)n1
- outcome: inactive

SMILES: O=C1NCCCCCCCCNC(=O)c2cccc1c2
- EC50: > 13.8 µM
- IC50: > 13.8 µM

SMILES: C=CCC1(O)C(CO[Si](C)(C)C(C)(C)C)OC(n2ccc(=O)[nH]c2=O)C1O[Si](C)(C)C(C)(C)C (stereo not drawn)
- EC50: > 200 µM
- IC50: 10.2 µM

SMILES: O=C1NC(=O)C(=Cc2ccccc2Cl)C(=O)N1
- EC50: > 269 µM
- IC50: 2.63 µM

SMILES: CSc1nnc(SC)c2[nH]cnc12
- EC50: > 200 µM
- IC50: > 200 µM

SMILES: O=C(NCCCCCCCN1CCCCCC1)C1c2ccccc2-c2ccccc21
- EC50: > 200 µM
- IC50: 39.8 µM

SMILES: CCOC1c2cc(C(C)C)c(O)c(O)c2[C@@]23CCCC(C)(C)C2C1OC3=O (stereo partly drawn)
- EC50: > 200 µM
- IC50: 9.33 µM

SMILES: Cc1ccc(S(=O)(=O)N2CCCC2C(=O)O[C@H]2CC[C@H]3CC=C[C@H]32)cc1 (stereo partly drawn)
- EC50: > 200 µM
- IC50: 20.9 µM

SMILES: O=C(N/C(=C\c1ccccc1O)c1nc2ccccc2[nH]1)c1ccccc1
- EC50: > 51.3 µM
- IC50: > 51.3 µM
